{"source": "ChEMBL document CHEMBL1137469", "about": "“(3R,4S)-4-(2,4,5-Trifluorophenyl)-pyrrolidin-3-ylamine inhibitors of dipeptidyl peptidase IV: synthesis, in vitro, in vivo, and X-ray crystallographic characterization” (Bioorg Med Chem Lett, 2007)", "key": {"Dipeptidyl peptidase 4": {"biological_target": "Dipeptidyl peptidase 4 (Homo sapiens, UniProt P27487)", "sequence (P27487 whole entry)": "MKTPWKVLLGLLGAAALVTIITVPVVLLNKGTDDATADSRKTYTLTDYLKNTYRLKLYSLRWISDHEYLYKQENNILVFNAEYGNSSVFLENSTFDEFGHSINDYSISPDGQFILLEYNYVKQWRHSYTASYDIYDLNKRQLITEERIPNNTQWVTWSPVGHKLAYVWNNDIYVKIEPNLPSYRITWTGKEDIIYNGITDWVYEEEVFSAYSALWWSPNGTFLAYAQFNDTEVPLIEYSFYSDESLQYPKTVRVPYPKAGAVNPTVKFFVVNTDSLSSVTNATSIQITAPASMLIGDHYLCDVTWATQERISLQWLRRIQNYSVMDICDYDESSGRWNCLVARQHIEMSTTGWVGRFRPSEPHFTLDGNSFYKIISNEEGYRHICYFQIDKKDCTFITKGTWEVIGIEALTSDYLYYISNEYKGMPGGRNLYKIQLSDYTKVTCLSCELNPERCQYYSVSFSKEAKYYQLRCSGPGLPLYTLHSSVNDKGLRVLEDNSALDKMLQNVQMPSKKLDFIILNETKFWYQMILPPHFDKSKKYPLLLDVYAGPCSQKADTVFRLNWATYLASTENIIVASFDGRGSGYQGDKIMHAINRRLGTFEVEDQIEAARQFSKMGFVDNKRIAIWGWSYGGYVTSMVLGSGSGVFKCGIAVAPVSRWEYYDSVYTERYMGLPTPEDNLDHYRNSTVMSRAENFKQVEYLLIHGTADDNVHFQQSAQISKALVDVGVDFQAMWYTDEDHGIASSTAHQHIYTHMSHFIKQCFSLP"}, "Dipeptidyl peptidase 2": {"biological_target": "Dipeptidyl peptidase 2 (Homo sapiens, UniProt Q9UHL4)", "assay": "Inhibition of human recombinant DPP2"}, "[1]": {"assay": "Plasma clearance in dog", "assay_type": "ADME, organism-based, Canis lupus familiaris"}, "[2]": {"assay": "Volume of distribution at steady state in dog plasma", "assay_type": "ADME, organism-based, Canis lupus familiaris", "settings": "read-out: Vdss"}, "[3]": {"assay": "Half life in iv dosed dog plasma", "assay_type": "ADME, organism-based, Canis lupus familiaris"}, "[4]": {"assay": "Volume of distribution at steady state in rat plasma", "assay_type": "ADME, organism-based", "settings": "read-out: Vdss"}, "[5]": {"assay": "Plasma clearance in rat", "assay_type": "ADME, organism-based"}, "[6]": {"assay": "Oral bioavailability in rat plasma", "assay_type": "ADME, organism-based"}, "[7]": {"assay": "Percent of unbound ligand in dog plasma", "assay_type": "ADME, cell-free, Canis lupus familiaris"}, "Dipeptidyl peptidase 3": {"biological_target": "T1, Dipeptidyl peptidase 3 (Homo sapiens, UniProt Q9NY33)", "T1 sequence (Q9NY33 whole entry)": "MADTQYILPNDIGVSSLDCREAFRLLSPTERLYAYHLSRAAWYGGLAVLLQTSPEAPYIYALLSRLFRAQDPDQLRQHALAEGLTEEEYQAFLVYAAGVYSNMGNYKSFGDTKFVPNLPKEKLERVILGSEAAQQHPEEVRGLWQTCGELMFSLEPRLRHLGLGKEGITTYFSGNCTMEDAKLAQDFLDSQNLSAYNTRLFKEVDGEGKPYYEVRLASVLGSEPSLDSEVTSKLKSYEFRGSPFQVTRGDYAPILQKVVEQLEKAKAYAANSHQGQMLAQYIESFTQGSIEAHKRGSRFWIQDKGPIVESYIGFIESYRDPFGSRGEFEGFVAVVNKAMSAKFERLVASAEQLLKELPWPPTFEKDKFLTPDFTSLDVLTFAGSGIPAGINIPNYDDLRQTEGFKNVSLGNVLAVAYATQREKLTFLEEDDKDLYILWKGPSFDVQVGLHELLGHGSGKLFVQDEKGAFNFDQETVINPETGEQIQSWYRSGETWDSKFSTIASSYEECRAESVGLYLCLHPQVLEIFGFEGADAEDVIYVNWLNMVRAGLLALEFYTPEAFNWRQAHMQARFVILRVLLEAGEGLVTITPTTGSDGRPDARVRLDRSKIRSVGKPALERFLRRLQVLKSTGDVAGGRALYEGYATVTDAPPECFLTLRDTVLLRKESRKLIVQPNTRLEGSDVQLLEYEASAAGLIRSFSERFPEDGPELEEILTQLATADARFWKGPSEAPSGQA", "assay": "Inhibition of DPP3"}, "[8]": {"assay": "Half life in po dosed rat plasma", "assay_type": "ADME, organism-based"}, "[9]": {"assay": "Half life in iv dosed rat plasma", "assay_type": "ADME, organism-based"}}}
{"smiles": "N[C@H]1CN(c2cnc3ccccc3n2)C[C@@H]1c1ccccc1", "values": [{"measurement": "IC50", "setting": "Dipeptidyl peptidase 4", "value": "> 3", "unit": "µM"}]}
{"smiles": "N[C@H]1CN(c2ccc3ccccc3n2)C[C@@H]1c1ccccc1", "values": [{"measurement": "IC50", "setting": "Dipeptidyl peptidase 4", "value": "> 3", "unit": "µM"}]}
{"smiles": "N#Cc1cccnc1N1C[C@H](c2ccccc2)[C@@H](N)C1", "values": [{"measurement": "IC50", "setting": "Dipeptidyl peptidase 4", "value": "> 3", "unit": "µM"}]}
{"smiles": "N[C@H]1CN(c2cc(-c3ccccc3Cl)ncn2)C[C@@H]1c1ccccc1", "values": [{"measurement": "IC50", "setting": "Dipeptidyl peptidase 4", "value": "> 3", "unit": "µM"}]}
{"smiles": "N[C@H]1CN(c2cc(-c3ccccc3)ncn2)C[C@@H]1c1cc(F)c(F)cc1F", "values": [{"measurement": "IC50", "setting": "Dipeptidyl peptidase 2", "value": 18, "unit": "µM"}]}
{"smiles": "N[C@H]1CN(c2cc(-c3cccc(F)c3)ncn2)C[C@@H]1c1cc(F)c(F)cc1F", "values": [{"measurement": "IC50", "setting": "Dipeptidyl peptidase 2", "value": 15, "unit": "µM"}]}
{"smiles": "COc1ccc(-c2cc(N3C[C@H](c4cc(F)c(F)cc4F)[C@@H](N)C3)ncn2)cn1", "values": [{"measurement": "clearance", "setting": "[1]", "value": 4.8, "unit": "mL/min/kg"}, {"measurement": "Vd", "setting": "[2]", "value": 1.9, "unit": "L/kg"}, {"measurement": "half-life", "setting": "[3]", "value": 5.1, "unit": "h"}, {"measurement": "Vd", "setting": "[4]", "value": 0.67, "unit": "L/kg"}, {"measurement": "clearance", "setting": "[5]", "value": 4.4, "unit": "mL/min/kg"}, {"measurement": "bioavailability", "setting": "[6]", "value": 57, "unit": "%"}, {"measurement": "fraction unbound", "setting": "[7]", "value": 0.17}, {"measurement": "IC50", "setting": "Dipeptidyl peptidase 3", "value": "> 30", "unit": "µM"}, {"measurement": "IC50", "setting": "Dipeptidyl peptidase 2", "value": 19, "unit": "µM"}, {"measurement": "half-life", "setting": "[8]", "value": 3.3, "unit": "h"}, {"measurement": "half-life", "setting": "[9]", "value": 2.8, "unit": "h"}]}
{"smiles": "Cn1cnc2c(N3C[C@H](c4ccccc4)[C@@H](N)C3)ncnc21", "values": [{"measurement": "IC50", "setting": "Dipeptidyl peptidase 4", "value": "> 3", "unit": "µM"}]}
{"smiles": "N[C@H]1CN(c2cc(-c3ccc(O)cc3)ncn2)C[C@@H]1c1ccccc1", "values": [{"measurement": "IC50", "setting": "Dipeptidyl peptidase 4", "value": "> 3", "unit": "µM"}]}
{"smiles": "N[C@H]1CN(c2cc(Cl)nc(-c3ccccc3)n2)C[C@@H]1c1ccccc1", "values": [{"measurement": "IC50", "setting": "Dipeptidyl peptidase 4", "value": "> 3", "unit": "µM"}]}
{"smiles": "N[C@H]1CN(c2cc(-c3ccc(Cl)cc3)ncn2)C[C@@H]1c1ccccc1", "values": [{"measurement": "IC50", "setting": "Dipeptidyl peptidase 4", "value": "> 3", "unit": "µM"}]}
{"smiles": "CC(=O)c1ccc(N2C[C@H](c3ccccc3)[C@@H](N)C2)nc1", "values": [{"measurement": "IC50", "setting": "Dipeptidyl peptidase 4", "value": "> 3", "unit": "µM"}]}
{"smiles": "CC(C)c1ccc([C@@H]2CN(c3nc4c(cc3F)c(=O)c(C(=O)O)cn4C3CC3)C[C@@H]2N)cc1", "note": "(relative stereo)", "values": [{"measurement": "IC50", "setting": "Dipeptidyl peptidase 4", "value": "> 3", "unit": "µM"}]}
{"smiles": "COC(=O)c1ccc([C@@H]2CN(c3nc4c(cc3F)c(=O)c(C(=O)O)cn4C3CC3)C[C@@H]2N)cc1", "note": "(relative stereo)", "values": [{"measurement": "IC50", "setting": "Dipeptidyl peptidase 4", "value": "> 3", "unit": "µM"}]}
{"smiles": "COc1ccc([C@@H]2CN(c3nc4c(cc3F)c(=O)c(C(=O)O)cn4C3CC3)C[C@@H]2N)cc1", "note": "(relative stereo)", "values": [{"measurement": "IC50", "setting": "Dipeptidyl peptidase 4", "value": "> 3", "unit": "µM"}]}
{"smiles": "CN(C)c1ccc([C@@H]2CN(c3nc4c(cc3F)c(=O)c(C(=O)O)cn4C3CC3)C[C@@H]2N)cc1", "note": "(relative stereo)", "values": [{"measurement": "IC50", "setting": "Dipeptidyl peptidase 4", "value": "> 3", "unit": "µM"}]}
{"smiles": "N[C@H]1CN(c2nc3c(cc2F)c(=O)c(C(=O)O)cn3C2CC2)C[C@H]1c1ccc(O)cc1", "note": "(relative stereo)", "values": [{"measurement": "IC50", "setting": "Dipeptidyl peptidase 4", "value": "> 3", "unit": "µM"}]}
{"smiles": "Nc1ccc([C@@H]2CN(c3nc4c(cc3F)c(=O)c(C(=O)O)cn4C3CC3)C[C@@H]2N)cc1", "note": "(relative stereo)", "values": [{"measurement": "IC50", "setting": "Dipeptidyl peptidase 4", "value": "> 3", "unit": "µM"}]}
